Data on 16 molecules can be found in ChEMBL document CHEMBL1132028, “Glycolipids from sponges. VII. Simplexides, novel immunosuppressive glycolipids from the Caribbean sponge Plakortis simplex” (1999).

Each structure is given as a SMILES string.

Experiment [1] concerns T-cell. The experiment is described as follows: Inhibitory activity against murine immune-system T-cells stimulated with concanavalin-A at 100 ng/ml. The format is functional, Mus musculus.
The test system of experiment [2] is T-cell. The experiment in a line: Inhibitory activity against murine immune-system T-cells stimulated with concanavalin-A at 10 ng/ml. The experiment is classed as functional, Mus musculus.
For the next experiment, the system named is Plakortis simplex. The experiment in a line: In vitro immunosuppressors activity against P. simplex; Potent. The experiment is classed as functional, organism-based.

Turning to `CCC(C)CCCCCCCCCCCCCCC(CCCCCCCCCCCCCCC(C)C)O[C@@H]1O[C@@H](CO)[C@H](O[C@H]2O[C@@H](CO)[C@@H](O)[C@H](O)[C@@H]2O)[C@H](O)[C@@H]1O` (stereo partly specified), the Proliferation with T-cell [1] is recorded as 79%; with T-cell [2] it was 43%.

`CCCCCCCCCCCCCCCCCCC(CCCCCCCCCCCCCCCC)O[C@@H]1O[C@@H](CO)[C@H](O[C@H]2O[C@@H](CO)[C@@H](O)[C@H](O)[C@@H]2O)[C@H](O)[C@@H]1O` (stereo partly specified): the Proliferation with T-cell [1] came to 79%; in the experiment with T-cell [2], 43%. As for `CCCCCCCCCCCC1CC1CCCCC/C=C/CC[C@@H](O)[C@H](CO[C@@H]1O[C@@H](CO)[C@H](O)[C@H](O)[C@@H]1OCC=C(C)C)NC(=O)[C@H](O)CC/C=C\CCCCC1CC1CCCCCCCCCC` (stereo partly specified), the Activity entry with Plakortis simplex was “Potent”. As for `CC(C)CCCCCCCCCCCCCCC(CCCCCCCCCCCCCCC(C)C)O[C@@H]1O[C@@H](CO)[C@H](O[C@H]2O[C@@H](CO)[C@@H](O)[C@H](O)[C@@H]2O)[C@H](O)[C@@H]1O`, the Proliferation stood at 79% with T-cell [1] and 43% in the experiment on T-cell [2].

Regarding `CCCCCCCCCCCCCCCCC(CCCCCCCCCCCCCCC(C)CC)O[C@@H]1O[C@@H](CO)[C@H](O[C@H]2O[C@@H](CO)[C@@H](O)[C@H](O)[C@@H]2O)[C@H](O)[C@@H]1O` (stereo partly specified), the results for the Proliferation in the experiment with T-cell [1] and in the experiment on T-cell [2] were 79% and 43%, respectively.

Consider `CCCCCCCCCCCCCCCCCCC(CCCCCCCCCCCCCCCCCC)O[C@@H]1O[C@@H](CO)[C@H](O[C@H]2O[C@@H](CO)[C@@H](O)[C@H](O)[C@@H]2O)[C@H](O)[C@@H]1O`, for which the Proliferation in the experiment with T-cell [1] was 79%; in the experiment on T-cell [2], 43%.

In the case of `CCCCCCCCCCCCCCCCCC(CCCCCCCCCCCCCCCC)O[C@@H]1O[C@@H](CO)[C@H](O[C@H]2O[C@@H](CO)[C@@H](O)[C@H](O)[C@@H]2O)[C@H](O)[C@@H]1O` (stereo partly specified), the Proliferation in the experiment on T-cell [1] is on record as 79%; in the experiment with T-cell [2], 43%. With `CCCCCCCCCCCCCCCCC(CCCCCCCCCCCCCCC(C)C)O[C@@H]1O[C@@H](CO)[C@H](O[C@H]2O[C@@H](CO)[C@@H](O)[C@H](O)[C@@H]2O)[C@H](O)[C@@H]1O` (stereo partly specified), the Proliferation was 79% with T-cell [1] and 43% with T-cell [2].

Turning to `CCCCCCCCCCCCCCCCCC(CCCCCCCCCCCCCCC(C)C)O[C@@H]1O[C@@H](CO)[C@H](O[C@H]2O[C@@H](CO)[C@@H](O)[C@H](O)[C@@H]2O)[C@H](O)[C@@H]1O` (stereo partly specified), the Proliferation in the experiment on T-cell [1] was 79%; in the experiment on T-cell [2] it was 43%.

Consider `CCCCCCCCCCCCCCCCCC(CCCCCCCCCCCCCCCCC)O[C@@H]1O[C@@H](CO)[C@H](O[C@H]2O[C@@H](CO)[C@@H](O)[C@H](O)[C@@H]2O)[C@H](O)[C@@H]1O`, for which the Proliferation with T-cell [1] is 79%; with T-cell [2] it was 43%. The matching figures for `CCCCCCCCCCCCCCCCCC(CCCCCCCCCCCCCCC(C)CC)O[C@@H]1O[C@@H](CO)[C@H](O[C@H]2O[C@@H](CO)[C@@H](O)[C@H](O)[C@@H]2O)[C@H](O)[C@@H]1O` (stereo partly specified): 79% and 43%. The matching figures for `CCC(C)CCCCCCCCCCCCCCC(CCCCCCCCCCCCCCC(C)CC)O[C@@H]1O[C@@H](CO)[C@H](OC2O[C@@H](CO)[C@@H](O)[C@H](O)[C@@H]2O)[C@H](O)[C@@H]1O` (stereo partly specified): 79% and 43%. Take `CCCCCCCCCCCCCCCCCCC(CCCCCCCCCCCCCCCCC)O[C@@H]1O[C@@H](CO)[C@H](OC2O[C@@H](CO)[C@@H](O)[C@H](O)[C@@H]2O)[C@H](O)[C@@H]1O` (stereo partly specified): the figures for the Proliferation with T-cell [1] and in the experiment on T-cell [2] were 79% and 43%, respectively.

On to `CCCCCCCCCCCCCCCCCCC(CCCCCCCCCCCCCCC(C)C)O[C@@H]1O[C@@H](CO)[C@H](OC2O[C@@H](CO)[C@@H](O)[C@H](O)[C@@H]2O)[C@H](O)[C@@H]1O` (stereo partly specified), for which the Proliferation with T-cell [1] was 79%; in the experiment on T-cell [2], 43%. Regarding `CCCCCCCCCCCCCCCCCCC(CCCCCCCCCCCCCCC(C)CC)O[C@@H]1O[C@@H](CO)[C@H](O[C@H]2O[C@@H](CO)[C@@H](O)[C@H](O)[C@@H]2O)[C@H](O)[C@@H]1O` (stereo partly specified), the Proliferation with T-cell [1] worked out at 79%; in the experiment with T-cell [2], 43%. `CCCCCCCCCCCCCCCCC(CCCCCCCCCCCCCCCC)O[C@@H]1O[C@@H](CO)[C@H](O[C@H]2O[C@@H](CO)[C@@H](O)[C@H](O)[C@@H]2O)[C@H](O)[C@@H]1O`: the Proliferation turned out to be 79% in the experiment on T-cell [1] and 43% with T-cell [2].
